Test results published in patent US11478471B2, “Methods and compositions for treating diabetes, metabolic syndrome and other conditions” (priority 2005, dated 2022).
Values after ≈ are worked out from the molar mass of the structure shown. Like-named read-outs stand apart in the source and are kept apart here.

Columns and labels:
[1] = test system: P450 2B1, 2B2, 1A1, 2C11, 3A; conditions: read-out: IC50, progesterone 16α hydroxylase (2B1, 2B2, 1A1, 2C11, 3A); Rotstein et al. 1992; cited from earlier work
P450 3A = conditions: read-out: IC50, progesterone 6β hydroxylase (3A); Rotstein et al. 1992; cited from earlier work
Salmonella typhimurium = test: Ames assay; conditions: five histidine requiring strains
[2] = dog, in vivo, 40 mg/kg
Procedure: As a control, a separate set of 2 male and 2 female dogs was treated with vehicle.

Candida guilliermondii = test: Antifungal MIC; format: cell-based; conditions: Meyerozyma guilliermondii, DSM11947; DSM strain 11947, 48 h
Candida parapsilosis = test: Antifungal MIC; format: cell-based; conditions: Lodderomyces parapsilosis, read-out: MIC
P450 2C6 = P450 2C6 (Rattus norvegicus, UniProt P05178); conditions: Rotstein et al. 1992; read-out: IC50, progesterone 21 hydroxylase (2C6); cited from earlier work
P450 2C6, sequence (P05178 whole entry): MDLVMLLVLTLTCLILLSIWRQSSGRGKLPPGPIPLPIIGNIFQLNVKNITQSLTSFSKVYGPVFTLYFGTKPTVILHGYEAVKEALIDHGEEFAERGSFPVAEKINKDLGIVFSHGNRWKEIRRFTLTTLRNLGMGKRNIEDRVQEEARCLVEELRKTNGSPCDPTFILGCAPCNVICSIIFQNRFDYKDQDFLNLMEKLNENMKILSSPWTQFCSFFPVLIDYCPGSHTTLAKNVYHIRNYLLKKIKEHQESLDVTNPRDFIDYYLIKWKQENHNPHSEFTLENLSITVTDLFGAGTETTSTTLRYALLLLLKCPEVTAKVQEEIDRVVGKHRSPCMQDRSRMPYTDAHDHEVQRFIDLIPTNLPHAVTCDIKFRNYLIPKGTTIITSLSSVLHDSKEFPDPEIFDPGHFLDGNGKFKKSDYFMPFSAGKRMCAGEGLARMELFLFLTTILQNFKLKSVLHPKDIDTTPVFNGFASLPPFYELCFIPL

Issatchenkia orientalis = test: Antifungal MIC; format: cell-based; conditions: Pichia kudriavzevii, read-out: MIC
[3] = test system: mouse L5178Y lymphoma cells; test: Mouse lymphoma assay, thymidine kinase locus; conditions: with and without S-9, up to toxic doses
Candida tropicalis = test: Antifungal MIC; format: cell-based; conditions: read-out: MIC
P450 4A = conditions: read-out: IC50, lauric acid hydroxylase (4A); Rotstein et al. 1992; cited from earlier work
[4] = dog, in vivo, po, 40 mg/kg/day
testosterone levels = test: Testosterone levels in rats after oral dosing; format: in vivo, Sprague Dawley rats; conditions: for Testosterone levels (mean ± SEM): 4 h after gavage
Text: There was a single control group (dosed with vehicle).
The means of the vehicle treated groups are used as the time zero control point.

[5] = cited from earlier work; for AUC 0-12 / Cmax / T ½: humans
[6] = following fifth 200 mg dose of racemic ketoconazole (every twelve hours)
[7] = following first 200 mg dose of racemic ketoconazole
[8] = normal volunteers, 200 mg dose of the racemic mixture

CC(=O)N1CCN(c2ccc(OC[C@@H]3CO[C@@](Cn4ccnc4)(c4ccc(Cl)cc4Cl)O3)cc2)CC1 [DIO-902, 2S,4R cis-1-acetyl-4-[4-[[2-(2,4-dichlorophenyl)-2-(1H-imidazol-1-ylmethyl)-1,3-dioxolan-4-yl]methoxyl]phenyl]piperazine]
IC50 [1]: 84 µM | IC50 (P450 3A): 1.3 µM | genotoxicity, Ames assay (Salmonella typhimurium): negative | clinical signs [2]: vomiting | MIC (Candida guilliermondii): 0.06 µg/mL (≈ 0.113 µM) | MIC (Candida parapsilosis; DSM05784, DSM strain 05784, 48 h): 0.03 µg/mL (≈ 0.0565 µM) | MIC (Candida parapsilosis; DSM11224, DSM strain 11224, 48 h): 0.03 µg/mL (≈ 0.0565 µM) | IC50 (P450 2C6): 9 µM | MIC (Issatchenkia orientalis; DSM11956, DSM strain 11956, 48 h): 0.25 µg/mL (≈ 0.47 µM) | MIC (Issatchenkia orientalis; DSM11958, DSM strain 11958, 48 h): 1 µg/mL (≈ 1.88 µM) | genotoxicity, mouse lymphoma assay [3]: negative | MIC (Candida tropicalis; DSM11951, DSM strain 11951, 48 h): 0.06 µg/mL (≈ 0.113 µM) | MIC (Candida tropicalis; DSM11952, DSM strain 11952, 48 h): 2 µg/mL (≈ 3.76 µM) | MIC (Candida tropicalis; DSM11953, DSM strain 11953, 48 h): 0.06 µg/mL (≈ 0.113 µM) | IC50 (P450 4A): > 100 µM | reduction in total white cell numbers [4]: 20% | time for testosterone levels to return to normal (testosterone levels; 200 mg/kg): ≤ 8 h | Testosterone levels (mean ± SEM) (testosterone levels; single oral 50 mg/kg): 2.6 ± 0.7 nmol/L | Testosterone levels (mean ± SEM) (testosterone levels; single oral 100 mg/kg): 0.8 ± 0.3 nmol/L | Testosterone levels (mean ± SEM), time course (testosterone levels; single oral 200 mg/kg, 4 h): 0.8 ± 0.2 nmol/L | Testosterone levels (mean ± SEM) (testosterone levels; single oral 200 mg/kg): 0.2 ± 0.1 nmol/L | Testosterone levels (mean ± SEM), time course (testosterone levels; single oral 200 mg/kg, 8 h): 5.9 ± 0.8 nmol/L | Testosterone levels (mean ± SEM), time course (testosterone levels; single oral 200 mg/kg, 12 h): 3.4 ± 0.5 nmol/L | Testosterone levels (mean ± SEM), time course (testosterone levels; single oral 200 mg/kg, 16 h): 3.9 ± 0.6 nmol/L | Testosterone levels (mean ± SEM), time course (testosterone levels; single oral 200 mg/kg, 20 h): 5.2 ± 0.6 nmol/L | Testosterone levels (mean ± SEM), time course (testosterone levels; single oral 200 mg/kg, 24 h): 4.4 ± 0.7 nmol/L | Testosterone levels (mean ± SEM) (testosterone levels; single oral 400 mg/kg): 0.3 ± 0.1 nmol/L | Testosterone levels (mean ± SEM) (testosterone levels; single oral 600 mg/kg): 0 ± 0 nmol/L | AUC 0-12 [5, 6]: 538 ± 74 µg·min/mL | Cmax [5, 6]: 1530 ± 190 ng/mL | T ½ [5, 6]: 3.62 ± 0.5 h | AUC 0-12 [5, 7]: 302 ± 38 µg·min/mL | Cmax [5, 7]: 1060 ± 130 ng/mL | T ½ [5, 7]: 2.22 ± 0.233 h | maximum plasma concentration [5, 8]: approximately 3.6 μg/mL | time of maximum plasma concentration [5, 8]: 2 h
